Data reported in ChEMBL document CHEMBL2073832, “Induction of cMrp/cMoat gene expression by cisplatin, 2-acetylaminofluorene, or cycloheximide in rat hepatocytes” (Hepatology, 1997).

Target: ATP-binding cassette sub-family C member 2 (Rattus norvegicus, UniProt Q63120)
Assay: TP_TRANSPORTER: Northern blot from primary hepatocytes
Type: functional, cell-based, Hepatocyte

ATP-binding cassette sub-family C member 2, sequence (Q63120 whole entry): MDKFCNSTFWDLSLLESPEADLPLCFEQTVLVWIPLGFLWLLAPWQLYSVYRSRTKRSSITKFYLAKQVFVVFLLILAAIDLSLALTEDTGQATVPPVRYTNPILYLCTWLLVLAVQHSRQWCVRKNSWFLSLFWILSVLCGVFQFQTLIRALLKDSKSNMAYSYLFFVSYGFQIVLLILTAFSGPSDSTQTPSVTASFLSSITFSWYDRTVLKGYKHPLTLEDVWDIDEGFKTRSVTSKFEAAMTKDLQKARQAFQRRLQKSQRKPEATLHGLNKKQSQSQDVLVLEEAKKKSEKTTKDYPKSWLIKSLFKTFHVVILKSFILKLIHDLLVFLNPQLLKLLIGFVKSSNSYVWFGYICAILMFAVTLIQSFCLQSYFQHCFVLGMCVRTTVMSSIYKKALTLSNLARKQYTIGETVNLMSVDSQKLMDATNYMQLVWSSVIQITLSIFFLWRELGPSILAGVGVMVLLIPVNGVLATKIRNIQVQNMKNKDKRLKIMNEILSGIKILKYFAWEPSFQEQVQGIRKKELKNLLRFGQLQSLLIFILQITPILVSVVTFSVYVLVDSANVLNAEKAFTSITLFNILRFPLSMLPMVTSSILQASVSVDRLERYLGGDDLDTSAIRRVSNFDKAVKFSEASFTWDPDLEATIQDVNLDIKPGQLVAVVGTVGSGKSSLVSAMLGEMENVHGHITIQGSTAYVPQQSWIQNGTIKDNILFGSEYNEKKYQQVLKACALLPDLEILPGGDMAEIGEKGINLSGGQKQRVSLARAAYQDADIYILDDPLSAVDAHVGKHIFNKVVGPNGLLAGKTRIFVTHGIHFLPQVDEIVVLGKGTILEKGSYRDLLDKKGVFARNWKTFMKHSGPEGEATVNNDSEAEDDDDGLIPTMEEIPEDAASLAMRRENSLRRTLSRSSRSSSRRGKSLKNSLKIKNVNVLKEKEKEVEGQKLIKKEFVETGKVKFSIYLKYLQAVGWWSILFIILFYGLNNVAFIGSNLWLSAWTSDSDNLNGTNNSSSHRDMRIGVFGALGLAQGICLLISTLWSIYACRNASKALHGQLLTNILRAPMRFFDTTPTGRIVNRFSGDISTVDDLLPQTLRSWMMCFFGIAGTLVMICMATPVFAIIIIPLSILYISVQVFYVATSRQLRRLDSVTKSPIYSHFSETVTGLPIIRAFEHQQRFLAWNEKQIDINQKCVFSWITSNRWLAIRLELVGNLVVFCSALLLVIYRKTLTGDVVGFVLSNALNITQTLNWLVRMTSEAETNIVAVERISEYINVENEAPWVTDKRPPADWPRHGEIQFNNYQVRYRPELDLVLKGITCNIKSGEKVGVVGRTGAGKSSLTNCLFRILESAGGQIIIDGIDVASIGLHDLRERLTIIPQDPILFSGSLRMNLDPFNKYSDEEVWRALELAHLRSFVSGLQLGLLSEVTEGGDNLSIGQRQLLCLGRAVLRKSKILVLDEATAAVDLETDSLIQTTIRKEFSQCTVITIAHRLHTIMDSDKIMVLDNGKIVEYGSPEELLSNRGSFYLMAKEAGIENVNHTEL

## C[C@@H]1C[C@@H]([C@H](O)CC2CC(=O)NC(=O)C2)C(=O)[C@@H](C)C1 [CYCLOHEXIMIDE]
  Activity: inducer [+]
